# According to paper PMC11562385 (RSC Chemical Biology, 2024):
# Where two headings read alike, the source gives them in different places. Bridge positions count the residues as written; N and C are the ends. Peptide text beside a SMILES is read from it.
# Columns and labels:
# [1] = Variable-temperature CD melting curves (CD-melts at 228±2 nm and 202±2 nm), individual and global two-state fits; format: physicochemical; conditions: for ΔGF0: CD-melt at 228±2 nm, individual two-state Gibbs-Helmholtz fit (Origin 9.0), phosphate buffer 15 mM pH 6.5 ± MeOH; for Tm / Hairpin %-fold 291K / Hairpin %-fold 310K: Table S5, individual fit; for Tm: 228±2 nm; for -TΔSF0 / ΔCpF0 / ΔHF0 / ΔHm: as E16; for VT-CD %-fold: folded fraction (χF) at 25 °C from CD-melts, (R) regular / (B) bulged fold; for DHm, fitted value from OriginPro / Tm, fitted value from OriginPro: xlsx sheet of the peptide, individual fit of CD-melt
# Description: Recently, our laboratory brought forward a novel synthetic technology for the synthesis of acyclic β-hairpins with long loops. […] To compare hairpins’ stability, both regular (R) and bulged (B) scaffolds were crafted around a flexible 10-residue model loop (G4K2G4) and analyzed by CD (circular dichroism) spectroscopy (Fig. 2(A), see ESI, ^† Table S5). The […] structure of these model scaffolds 1avs.2a in solution were recorded in the far-UV CD spectra. […] The CD-exciton intensity was therefore used as a global probe to determine the %-folding of ADAPTins and to obtain melting curves corresponding to the hairpin fraying mechanism upon a gradual increase of temperature (0 to 95 °C).[68] […] In addition, NMR (nuclear magnetic resonance) chemical shifts were measured to determine variations in backbone […] structures (Fig. 2(B)). Secondary chemical shift deviations (CSDs) were calculated against random coil values[69] for both ADAPTin scaffolds 1vs.2 to verify that the hairpins were folded and if any variation of conformational rigidity exist within the loops. […]
# Mass Spectrometer coupled to a Vanquish™ Neo UHPLC System (Thermo Scientific™). Peptide solutions for circular dichroism (CD) were prepared within a concentration range of 15-120 µM in a phosphate buffer (15 mM, […]
# measured accurately using a JASCO V-670 spectrophotometer relied on the combined molar absorptivity of Trp (ε280 = 5580 M-1 .cm-1 per Trp) and Tyr (ε280 = 1280 M-1 .cm-1 per Tyr) to determine each sample's concentration.
# CD spectra were recorded using a JASCO J-810 Spectropolarimeter equipped with a temperature controller module JASCO PFD-425S. Raw CD melting curves were processed in SpectraGryph, and fitting was performed in OriginPro 9.0 (Originlab Corporation, U.S.A.). NMR samples were prepared by reconstituting freeze -dried peptides (~ 1-5 mg) in mixture of water and DMSO -d6 (90:10 v/v) using 2,2-dimethyl-2-silapentane-5-sulfonate (DSS) as internal standard for chemical shifts (0 ppm), and spectra were recorded at 291 K (18 °C) unless otherwise stated. Chemical shifts ( δ) are reported in ppm. Samples for NMR experiments were prepared in a range of 3-10 mM of peptide in solution unless otherwise noted.
# PD1:PDL1 interaction = target: T1, PD1:PDL1 interaction (Homo sapiens, UniProt Q15116); assay: PD1/PDL1 immunoblocking ELISA (BPS Bioscience kit cat # 72005); format: binding; conditions: for LE (ligand efficiency): LE = -RTln(EC50)/HA, HA = non-hydrogen atoms omitting the strap (RWV•••VWE)
# T1 construct: purchased BPS Bioscience 72005
# Description: Original loops with Phe/Trp and their Gly-derived analogs. Experimental EC50 values from inhibitory dose–response curves. Error bars indicate the mean ± SD, (n = 3). […]
# SDS -Pages, buffers, and stain were purchased from Fisher
# 8. Immunoblocking ELISA Assay
# Peptide inhibitor stock solutions were prepared in the concentration range of approximately 1-5 mM in DMSO. […]
# plate was then washed and blocked with blocking buffer for 1 h at room temperature. Inhibitor solutions (ranging from 0.01 to 100 μM) and a blank solution (DMSO/PBS buffer) were added to designated wells. To initiate the […]
# inhibitor solutions. After a 2 h incubation at room temperature, the plate was washed and blocked again for 10 min. Streptavidin-HRP (diluted at 1 : 1000) was added and incubated for 1 h at room temperature with gentle shaking. The plate was washed and blocked once more for 10 min. ELISA ECL substrate was added, and the resulting chemoluminescence was immediately measured in a luminometer (FLUOstar OPTIMA, BMG Labtech).
# The luminescence value of the blank was subtracted from all readings according to the manufacturer's
# [2] = phosphate buffer 15 mM pH 6.5, up to 20% MeOH
# [3] = ELISA, mean of three independent experiments, read-out: EC50 Value
# [4] = variable-temperature CD melt 0-95 °C, θ - θcoil(95) vs T, l = 0.1 cm, individual two-state fit
# [5] = two-state fit of the CD melt θ - θcoil(95) vs T, 0-95 °C, l 0.1 cm, peptide c 3.2e-5 to 5e-5 M
# T1 sequence (Q15116 25-167 limits assumed): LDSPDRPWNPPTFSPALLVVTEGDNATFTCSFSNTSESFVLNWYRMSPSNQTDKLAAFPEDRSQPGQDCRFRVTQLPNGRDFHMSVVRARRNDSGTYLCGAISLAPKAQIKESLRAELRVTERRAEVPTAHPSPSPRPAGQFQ
Structure (SMILES),ΔGF0 ([1]; 0-95 °C),Tm [1],Hairpin %-fold 291K [1],Hairpin %-fold 310K [1],-TΔSF0 [1],ΔCpF0 [1],ΔHF0 [1],ΔHm [1],"VT-CD %-fold [1, 2]",LE (ligand efficiency) (PD1:PDL1 interaction),"DHm, fitted value from OriginPro [1]","Tm, fitted value from OriginPro [1]",EC50 (PD1:PDL1 interaction; [3]),also measured
CC[C@H](C)[C@H](NC(=O)[C@H](Cc1ccc(O)cc1)NC(=O)CNC(=O)[C@H](Cc1ccc(O)cc1)NC(=O)[C@H](CC(N)=O)NC(=O)CNC(=O)[C@H](Cc1ccc(O)cc1)NC(=O)[C@H](C)NC(=O)[C@H](CCCNC(=N)N)NC(=O)[C@H](C)NC(=O)[C@@H](NC(=O)[C@H](Cc1c[nH]c2ccccc12)NC(=O)[C@@H](N)CCCNC(=N)N)C(C)C)C(=O)N[C@@H](CC(=O)O)C(=O)N[C@H](C(=O)N[C@@H](Cc1c[nH]c2ccccc12)C(=O)N[C@@H](Cc1c[nH]cn1)C(=O)N[C@@H](Cc1c[nH]c2ccccc12)C(=O)N[C@@H](CCC(=O)O)C(=O)O)C(C)C [2r] (H-RWVARAYGNYGYIDVWHWE-OH),-1.15 ± 0.01 kcal/mol,67.6 oC,91 ± 1%,80 ± 1%,7.13 ± 0.3 kcal/mol,-44 ± 9 cal.deg-1.mol-1,-8.29 ± 0.3 kcal/mol,-10.2 ± 0.2 kcal/mol,91% (B),0.08,–,–,–,"%fold 291K ([1]; fraction folded at 291 K from the two-state fit of the CD melt, c 6.2e-5 M, l 0.1 cm): 91%; DHm (fitted value, OriginPro) ([1]; two-state fit of the CD melt (θ - θcoil(95) vs T, 0-95 °C), l 0.1 cm, enthalpy of folding at Tm): -10.1866 kcal/mol"
CSCC[C@H](NC(=O)[C@H](CC(=O)O)NC(=O)[C@H](Cc1ccccc1)NC(=O)[C@H](CCCNC(=N)N)NC(=O)[C@H](Cc1ccc(O)cc1)NC(=O)[C@H](CC(=O)O)NC(=O)[C@H](CCCNC(=N)N)NC(=O)[C@H](CCCNC(=N)N)NC(=O)[C@H](Cc1c[nH]c2ccccc12)NC(=O)[C@@H](NC(=O)[C@H](Cc1c[nH]c2ccccc12)NC(=O)[C@@H](N)CCCNC(=N)N)C(C)C)C(=O)NCC(=O)N[C@@H](Cc1ccccc1)C(=O)N[C@@H](CC(=O)O)C(=O)N[C@@H](Cc1ccc(O)cc1)C(=O)N[C@@H](Cc1c[nH]c2ccccc12)C(=O)N[C@H](C(=O)N[C@@H](Cc1c[nH]c2ccccc12)C(=O)N[C@@H](CCC(=O)O)C(=O)O)C(C)C [1d] (H-RWVWRRDYRFDMGFDYWVWE-OH),0.010 ± 0.001 kcal/mol,34.9 oC,48 ± 1%,49 ± 1%,-1.08 ± 0.04 kcal/mol,-189 ± 2 cal.deg-1.mol-1,1.09 ± 0.04 kcal/mol,-0.037 ± 0.07 kcal/mol,49% (R),0.05,-0.0374427 kcal/mol,303.944 K,6.8 µM,–
CSCC[C@H](NC(=O)[C@H](CC(=O)O)NC(=O)CNC(=O)[C@H](CCCNC(=N)N)NC(=O)[C@H](Cc1ccc(O)cc1)NC(=O)[C@H](CC(=O)O)NC(=O)[C@H](CCCNC(=N)N)NC(=O)[C@H](CCCNC(=N)N)NC(=O)[C@H](C)NC(=O)[C@@H](NC(=O)[C@H](Cc1c[nH]c2ccccc12)NC(=O)[C@@H](N)CCCNC(=N)N)C(C)C)C(=O)NCC(=O)N[C@@H](Cc1ccccc1)C(=O)N[C@@H](CC(=O)O)C(=O)N[C@@H](Cc1ccc(O)cc1)C(=O)N[C@@H](Cc1c[nH]c2ccccc12)C(=O)N[C@H](C(=O)N[C@@H](Cc1c[nH]c2ccccc12)C(=O)N[C@@H](CCC(=O)O)C(=O)O)C(C)C [2b] (H-RWVARRDYRGDMGFDYWVWE-OH),-1.24 ± 0.01 kcal/mol,59.1 oC,92 ± 1%,81 ± 1%,7.65 ± 0.03 kcal/mol,-193 ±1 cal.deg-1.mol-1,-8.89 ± 0.03 kcal/mol,–,92% (B),0.06,-15.492 kcal/mol,332.248 K,7.05 µM,"TM (°C) ([1]; Fig. 2, CD-melts of regular vs bulged scaffolds): 59 °C; VT-CD Tm (°C) ([1]; melting temperature from CD-melts, phosphate buffer 15 mM pH 6.5, up to 20% MeOH): 59 °C; EC50 (PD1:PDL1 interaction; [PD1•PDL1] blocking EC50, Fig. 3B, cut-off bars of congeneric pairs (Phe/Trp vs Gly), n = 3): > 5 µM"
CSCC[C@H](NC(=O)[C@H](CC(=O)O)NC(=O)CNC(=O)[C@H](CCCNC(=N)N)NC(=O)[C@H](Cc1ccc(O)cc1)NC(=O)[C@H](CC(=O)O)NC(=O)[C@H](CCCNC(=N)N)NC(=O)[C@H](CCCNC(=N)N)NC(=O)[C@H](CCCCN)NC(=O)[C@@H](NC(=O)[C@H](Cc1c[nH]c2ccccc12)NC(=O)[C@@H](N)CCCNC(=N)N)C(C)C)C(=O)NCC(=O)N[C@@H](Cc1ccccc1)C(=O)N[C@@H](CC(=O)O)C(=O)N[C@@H](Cc1ccc(O)cc1)C(=O)N[C@@H](Cc1c[nH]c2ccccc12)C(=O)N[C@H](C(=O)N[C@@H](Cc1c[nH]c2ccccc12)C(=O)N[C@@H](CCC(=O)O)C(=O)O)C(C)C [2f] (H-RWVKRRDYRGDMGFDYWVWE-OH),-1.33 ± 0.01 kcal/mol,65.4 oC,92 ± 1%,85 ± 1%,5.76 ± 0.07 kcal/mol,-208 ±2 cal.deg-1.mol-1,-7.09 ± 0.07 kcal/mol,-15.5 ± 0.04 kcal/mol,92% (B),0.06,–,–,0.862 µM,"%fold 291K ([1]; fraction folded at 291 K from two-state fit of CD-melt): 92%; DHm (fitted value, OriginPro two-state fit of CD-melt) [1, 4]: -15.5228 kcal/mol; Tm (fitted value, OriginPro two-state fit of CD-melt) [1, 4]: 338.533 K"
CSCC[C@@H]1NC(=O)[C@H](CC(=O)O)NC(=O)[C@H](Cc2ccccc2)NC(=O)[C@H](CCCNC(=N)N)NC(=O)[C@H](Cc2ccc(O)cc2)NC(=O)[C@H](CC(=O)O)NC(=O)[C@H](CCCNC(=N)N)NC(=O)[C@H](CCCNC(=N)N)NC(=O)[C@H](C)NC(=O)[C@@H](NC(=O)[C@H](Cc2c[nH]c3ccccc23)NC(=O)[C@@H](N)CCCNC(=N)N)CSSC[C@@H](C(=O)N[C@@H](Cc2c[nH]c3ccccc23)C(=O)N[C@@H](CCC(=O)O)C(=O)O)NC(=O)[C@H](Cc2c[nH]c3ccccc23)NC(=O)[C@H](Cc2ccc(O)cc2)NC(=O)[C@H](CC(=O)O)NC(=O)[C@H](Cc2ccccc2)NC(=O)CNC1=O [2l] (H-RWCARRDYRFDMGFDYWCWE-OH; disulfide 3-18),-0.77 ± 0.01 kcal/mol,66.0 oC,82 ± 1%,71 ± 1%,4.69 ± 0.05 kcal/mol,-44 ± 2 cal.deg-1.mol-1,-5.46 ± 0.05 kcal/mol,-7.29 ± 0.04 kcal/mol,–,0.06,–,–,0.584 µM,"DHm (fitted value, results from OriginPro) [1, 5]: -7.28521 kcal/mol; Tm (fitted value, results from OriginPro) [1, 5]: 339.181 K"
